The values below come from patent publication US20230002327A1, “SMALL-MOLECULE REGULATOR OF TLR8” (TSINGHUA UNIVERSITY, priority 2019, published 2023).

The structures appear in SMILES notation.

One data set has as its target T1, TLR8 (Homo sapiens, UniProt Q9NR97).
T1 construct: host or cells: HEK-Blue hTLR8 (HEK293-derived SEAP reporter cells)
T1 sequence (Q9NR97 27-1041): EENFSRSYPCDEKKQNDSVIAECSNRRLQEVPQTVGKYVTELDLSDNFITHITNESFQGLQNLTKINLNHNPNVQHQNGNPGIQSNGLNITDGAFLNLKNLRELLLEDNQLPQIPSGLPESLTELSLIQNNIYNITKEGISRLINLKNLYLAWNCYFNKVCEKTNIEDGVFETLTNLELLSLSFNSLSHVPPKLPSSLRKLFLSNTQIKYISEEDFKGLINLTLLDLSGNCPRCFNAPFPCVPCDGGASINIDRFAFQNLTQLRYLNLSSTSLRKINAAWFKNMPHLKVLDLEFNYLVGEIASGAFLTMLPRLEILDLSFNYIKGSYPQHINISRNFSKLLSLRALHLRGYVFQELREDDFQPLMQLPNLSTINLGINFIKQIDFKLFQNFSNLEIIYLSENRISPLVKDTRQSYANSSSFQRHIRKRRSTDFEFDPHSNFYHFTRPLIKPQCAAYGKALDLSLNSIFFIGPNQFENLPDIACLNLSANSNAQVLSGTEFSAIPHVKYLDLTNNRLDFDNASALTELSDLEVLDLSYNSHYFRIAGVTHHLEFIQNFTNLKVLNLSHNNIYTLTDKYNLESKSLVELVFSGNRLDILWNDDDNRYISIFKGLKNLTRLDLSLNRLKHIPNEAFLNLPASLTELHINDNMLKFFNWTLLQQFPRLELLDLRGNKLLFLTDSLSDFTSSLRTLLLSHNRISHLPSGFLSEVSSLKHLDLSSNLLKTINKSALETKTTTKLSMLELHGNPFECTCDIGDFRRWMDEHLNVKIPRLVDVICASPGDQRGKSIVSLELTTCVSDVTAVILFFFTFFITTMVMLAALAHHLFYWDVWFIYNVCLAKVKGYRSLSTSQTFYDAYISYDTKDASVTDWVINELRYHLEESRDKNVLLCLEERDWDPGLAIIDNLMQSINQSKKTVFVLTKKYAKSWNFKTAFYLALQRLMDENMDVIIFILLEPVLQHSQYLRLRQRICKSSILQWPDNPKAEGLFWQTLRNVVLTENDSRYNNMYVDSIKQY
Nature of the data set: Inhibition of R848-induced signaling in HEK-Blue hTLR8 cell line (Quanti-Blue). The class given is cell-based. The settings on record: HEK-Blue hTLR8 cell line; normalized, ligand+DMSO = 100% activity, untreated = 0%. The procedure: (§1) HEK Blue hTLR8 cells or HEK Blue hTLR7 cells were cultured in DMEM medium supplemented with 10% fetal bovine serum, penicillin (100 U/mL) and streptomycin ([…]). Thereafter, cells were seeded in 96-well plate (45,000 cells per well), and were cultured for 24 hours in a humidified incubator (37° C., 5% CO2).
After 24 hours, the supernatant and suspending cells were aspirated and replaced with fresh serum-free DMEM.
(§2) After 24 hours, 50 μL of the medium was aspirated from each well and then added to a new 96-well plate, followed by the addition of 50 μL of Quanti-Blue in each well and the incubation at 37° C. in darkness. Changes in color would occur in the […] within 60 minutes, and the absorbance was measured at 620 nm by using the multi-mode plate reader Vrioskan Flash. Inhibition rate (%)=[R848 (OD620)−Compound (OD620)]/[R848 (OD620)−Control (OD620)]×100%. Among these, the control group was only added with the same amount of cells. Finally, the software Prism 6.0 was utilized to plot a graph and calculate IC50 values. Or, the activity of the cells treated with ligand and DMSO was defined as 100% activity, and the activity of the untreated cells was defined as 0% activity.

The target of the next data set is T2, TLR7 (Homo sapiens, UniProt Q9NYK1).
T2 construct: host or cells: HEK-Blue hTLR7 (HEK293-derived SEAP reporter cells)
T2 sequence (Q9NYK1 27-1049): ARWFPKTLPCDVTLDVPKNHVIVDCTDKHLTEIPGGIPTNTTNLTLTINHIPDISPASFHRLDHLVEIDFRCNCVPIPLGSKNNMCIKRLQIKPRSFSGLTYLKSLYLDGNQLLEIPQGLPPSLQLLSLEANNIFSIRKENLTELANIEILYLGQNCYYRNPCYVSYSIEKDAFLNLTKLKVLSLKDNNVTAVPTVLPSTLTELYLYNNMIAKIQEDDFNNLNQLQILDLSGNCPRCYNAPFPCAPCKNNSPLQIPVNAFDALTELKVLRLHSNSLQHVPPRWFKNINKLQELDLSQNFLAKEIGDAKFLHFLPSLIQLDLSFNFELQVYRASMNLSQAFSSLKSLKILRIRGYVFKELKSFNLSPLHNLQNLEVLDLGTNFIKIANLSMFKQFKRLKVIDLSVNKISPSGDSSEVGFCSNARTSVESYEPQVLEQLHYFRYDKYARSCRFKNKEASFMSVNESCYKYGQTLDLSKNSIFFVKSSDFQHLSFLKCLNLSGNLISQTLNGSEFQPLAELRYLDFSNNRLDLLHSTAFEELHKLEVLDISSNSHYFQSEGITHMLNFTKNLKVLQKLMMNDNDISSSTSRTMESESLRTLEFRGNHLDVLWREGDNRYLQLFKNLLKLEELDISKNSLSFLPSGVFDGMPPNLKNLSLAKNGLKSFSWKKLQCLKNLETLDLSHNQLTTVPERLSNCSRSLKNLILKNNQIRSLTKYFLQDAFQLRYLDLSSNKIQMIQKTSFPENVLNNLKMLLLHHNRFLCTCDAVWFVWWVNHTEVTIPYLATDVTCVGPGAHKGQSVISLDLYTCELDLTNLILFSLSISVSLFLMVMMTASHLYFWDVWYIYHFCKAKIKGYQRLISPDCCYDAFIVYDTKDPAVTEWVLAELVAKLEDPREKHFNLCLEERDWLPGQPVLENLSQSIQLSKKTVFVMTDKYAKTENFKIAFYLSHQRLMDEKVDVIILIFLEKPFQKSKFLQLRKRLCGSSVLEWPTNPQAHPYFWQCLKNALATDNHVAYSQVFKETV
Nature of the data set: Inhibition of R848-induced signaling in HEK-Blue hTLR7 cell line (Quanti-Blue). The data set is classed as cell-based. As to the method: as §1
After 24 hours, the supernatant and suspending cells were aspirated and replaced with fresh serum-free DMEM. Cells were treated with 1 μg/mL of R848 (agonist of TLR7/8) or 5 μg/mL of ssRNA40/LyoVec or 5 μg/mL of ORN06/LyoVec (InvivoGen) and compounds with specified concentrations, and were placed in a humidified incubator (37° C., 5% CO2) for co-culture.
as §2

Another data set concerns HEK-Blue hTLR8 cell line. Kind of data set: Toxicity test of compounds (CCK-8 cell viability). Also on record: key to WST1 (normalized toxicity effect): viability relative to control well (background-subtracted OD), 1 = control. The settings on record: normalized cell viability, HEK-Blue cell lines. The class given is cell-based, human. The procedure:
In the 96-well plate used for the above-mentioned activity test of compounds (remaining 50 μL of culture medium containing cells), 5 μL of CellCountingKit-8 (CCK-8) Supermix was added to each well. Note that the introduction of air bubbles into the wells should be avoided since the air bubbles would interfere with the detection of OD value.
The culture plate was incubated in an incubator for 1 to 4 hours,
The edge of the 96-well plate could be tapped gently before reading the plate, and then the absorbance at 450 nm was measured by using the multi-mode plate reader.
Cell viability (%) was determined using the following formula: cell viability (%)=([Compound well ([…])−Background well (OD450)]/[Control well ([…])−Background well (OD450)])×100%. Among these, the background well was only added with the medium and CCK-8 reagent, the control well was only added with the medium, cells, R848 and CCK-8, and the compound wells were added with the medium, cells, R848, compounds in different concentrations, and CCK-8.

`CCOCc1nc(C(=N)N)c(-c2ccccc2)n1CC(C)(C)O` [Compound 39, 2-(ethoxymethyl)-1-(2-hydroxy-2-methylpropyl)-5-phenyl-1H-imidazole-4-carboxamidine]: the “Remaining R848-induced TLR8 signaling (normalized activity; ligand+DMSO = 1, untreated = 0)” value on TLR8 is 1.0 ± 0.2. For the same molecule, at TLR7, the “TLR7 (normalized inhibitory effect on R848-induced signaling)” value is given as 0.8 ± 0.1. Further, the “WST1 (normalized toxicity effect)” value with HEK-Blue hTLR8 cell line is 0.7 ± 0.2.

`CCOCc1nc(CF)c(-c2ccccc2)n1CC(C)(C)O` [Compound 46, 1-[2-(ethoxymethyl)-4-(fluoromethyl)-5-phenyl-1H-imidazole-1-yl]-2-methylpropan-2-ol]: the “Remaining R848-induced TLR8 signaling (normalized activity; ligand+DMSO = 1, untreated = 0)” value at TLR8 stood at 1.0 ± 0.2. On TLR7, the “TLR7 (normalized inhibitory effect on R848-induced signaling)” value is on record as 0.8 ± 0.2. Moreover, the “WST1 (normalized toxicity effect)” value with HEK-Blue hTLR8 cell line worked out at 0.9 ± 0.3.

For `CCOCc1nc(C(N)=O)c(-c2ccccc2)n1CC(C)(C)O` [Compound 40, 2-(ethoxymethyl)-1-(2-hydroxy-2-methylpropyl)-5-phenyl-1H-imidazole-4-carboxamide], on TLR8, the “Remaining R848-induced TLR8 signaling (normalized activity; ligand+DMSO = 1, untreated = 0)” value worked out at 0.7 ± 0.1. The “TLR7 (normalized inhibitory effect on R848-induced signaling)” value on TLR7 amounted to 1.0 ± 0.1. In addition, in the data set on HEK-Blue hTLR8 cell line, the “WST1 (normalized toxicity effect)” value was found to be 0.8 ± 0.3.

In the case of `CCOCc1nc(I)c(-c2ccc3ccccc3c2)n1CC(C)(C)O` [Compound 63, 1-(2-(ethoxymethyl)-4-iodo-5-(naphthalen-2-yl)-1H-imidazole-1-yl)-2-methylpropan-2-ol], the “Remaining R848-induced TLR8 signaling (normalized activity; ligand+DMSO = 1, untreated = 0)” value on TLR8 is 0.9 ± 0.1. The “TLR7 (normalized inhibitory effect on R848-induced signaling)” value on TLR7 came out at 0.9 ± 0.2. The “WST1 (normalized toxicity effect)” value in the data set on HEK-Blue hTLR8 cell line is 1.0 ± 0.1.

For the molecule `CCOCc1nc(I)c(-c2ccc(C)cc2)n1CC(C)(C)O` [Compound 64, 1-(2-(ethoxymethyl)-4-iodo-5-(p-tolyl)-1H-imidazole-1-yl)-2-methylpropan-2-ol], the “Remaining R848-induced TLR8 signaling (normalized activity; ligand+DMSO = 1, untreated = 0)” value at TLR8 stood at 0.9 ± 0.1. For the same molecule, on TLR7, the “TLR7 (normalized inhibitory effect on R848-induced signaling)” value is 0.9 ± 0.2. In addition, the “WST1 (normalized toxicity effect)” value in the data set on HEK-Blue hTLR8 cell line amounted to 1.1 ± 0.1.

Turning to `CCOCc1nc(I)c(-c2ccccc2)n1CC(C)C` [Compound 58, 2-(ethoxymethyl)-4-iodo-1-(2-methylpropyl)-5-phenyl-1H-imidazole], on TLR8, the “Remaining R848-induced TLR8 signaling (normalized activity; ligand+DMSO = 1, untreated = 0)” value turned out to be 0.01 ± 0.01. For the same molecule, the “TLR7 (normalized inhibitory effect on R848-induced signaling)” value on TLR7 is reported as 0.1 ± 0.2. In addition, the “WST1 (normalized toxicity effect)” value with HEK-Blue hTLR8 cell line is listed as 0.3 ± 0.2.

Turning to `CCOCc1nc(Cl)c(-c2ccccc2)n1CC(C)(C)O` [Compound 51, 1-[4-chloro-2-(ethoxymethyl)-5-phenyl-1H-imidazole-1-yl]-2-methylpropan-2-ol], on TLR8, the “Remaining R848-induced TLR8 signaling (normalized activity; ligand+DMSO = 1, untreated = 0)” value is listed as 0.6 ± 0.1. Also, the “TLR7 (normalized inhibitory effect on R848-induced signaling)” value at TLR7 is reported as 1.1 ± 0.2. Further, the “WST1 (normalized toxicity effect)” value in the data set with HEK-Blue hTLR8 cell line is on record as 0.9 ± 0.2.

For `CCOCc1nc(I)c(-c2cccc(-c3ccccc3)c2)n1CC(C)(C)O` [Compound 61, 1-(5-([1,1′-biphenyl]-3-yl)-2-(ethoxymethyl)-4-iodo-1H-imidazole-1-yl)-2-methylpropan-2-ol], the “Remaining R848-induced TLR8 signaling (normalized activity; ligand+DMSO = 1, untreated = 0)” value at TLR8 came out at 0.01 ± 0.01. Moreover, the “TLR7 (normalized inhibitory effect on R848-induced signaling)” value at TLR7 amounted to 0.9 ± 0.1. Moreover, the “WST1 (normalized toxicity effect)” value in the data set on HEK-Blue hTLR8 cell line is reported as 0.9 ± 0.2.

Regarding `CCOCc1nc(I)c(-c2ccc(-c3ccccc3)cc2)n1CC(C)(C)O` [Compound 60, 1-(5-([1,1′-biphenyl]-4-yl)-2-(ethoxymethyl)-4-iodo-1H-imidazole-1-yl)-2-methylpropan-2-ol], the “Remaining R848-induced TLR8 signaling (normalized activity; ligand+DMSO = 1, untreated = 0)” value at TLR8 was found to be 0.3 ± 0.1. In addition, the “TLR7 (normalized inhibitory effect on R848-induced signaling)” value at TLR7 was 1.0 ± 0.1. The “WST1 (normalized toxicity effect)” value in the data set on HEK-Blue hTLR8 cell line is 0.6 ± 0.1.

Consider `CCOCc1nc(C(=O)OC)c(-c2ccccc2)n1CC(C)(C)O` [Compound 42, methyl 2-(ethoxymethyl)-1-(2-hydroxy-2-methylpropyl)-5-phenyl-1H-imidazole-4-carboxylate], for which the “Remaining R848-induced TLR8 signaling (normalized activity; ligand+DMSO = 1, untreated = 0)” value at TLR8 amounted to 0.9 ± 0.2. Also, the “TLR7 (normalized inhibitory effect on R848-induced signaling)” value on TLR7 is 0.9 ± 0.2. Besides, the “WST1 (normalized toxicity effect)” value with HEK-Blue hTLR8 cell line is 0.9 ± 0.1.

As to `CCOCc1nc(CO)c(-c2ccccc2)n1CC(C)(C)O` [Compound 43, 1-[2-(ethoxymethyl)-4-(hydroxymethyl)-5-phenyl-1H-imidazole-1-yl]-2-methylpropan-2-ol], the “Remaining R848-induced TLR8 signaling (normalized activity; ligand+DMSO = 1, untreated = 0)” value on TLR8 worked out at 1.0 ± 0.2. Besides, the “TLR7 (normalized inhibitory effect on R848-induced signaling)” value at TLR7 amounted to 0.9 ± 0.2. For the same molecule, the “WST1 (normalized toxicity effect)” value in the data set with HEK-Blue hTLR8 cell line amounted to 0.8 ± 0.1.
